Measurements taken from patent US20240381872A1, “SUBSTITUTED 2,3-DIHYDRO[1,3]THIAZOLO[4,5-B]PYRIDINES, SALTS THEREOF AND THEIR USE AS HERBICIDALLY ACTIVE SUBSTANCES” (BAYER AKTIENGESELLSCHAFT, priority 2021, published 2024).

Key:
Type in all cases: in vivo
[1] = system: Kochia scoparia (KCHSC); experiment: Herbicidal pre-emergence action, section A (Table A4); conditions: visual grading after ca. 3 weeks vs untreated controls
Excerpt: (§1) Seeds of mono- and dicotyledonous weed plants were sown in plastic pots (double sowings with one species of mono- and one species of dicotyledonous weed plants per pot), in sandy loam, and covered with soil. The compounds according to the invention, formulated in the form of wettable powders (WP) or as emulsifiable concentrates (EC), were applied to the surface of the covering soil as aqueous suspension or emulsion, with the addition of 0.5% of an additive, at an application rate of 600 l of water per hectare (converted). Following treatment, the pots were placed in a greenhouse and kept under optimum growth conditions for the test plants. The visual grading of the damage to the test plants was carried out after ca. 3 weeks in comparison to untreated controls (herbicidal effect in percent (%): 100% effect=plants have died off, 0% effect=as control plants).

[2] = system: Stellaria media (STEME); experiment: Herbicidal pre-emergence action, section A (Table A9); conditions: application rate 1280 g/ha
Excerpt: as §1

[3] = system: Amaranthus retroflexus (AMARE); experiment: Herbicidal pre-emergence action, section A (Table A11)
Excerpt: as §1

[4] = system: Digitaria sanguinalis (DIGSA); experiment: Herbicidal pre-emergence action, section A (Table A12); conditions: application rate 1280 g/ha
Excerpt: as §1

[5] = system: Poa annua (POAAN); experiment: Herbicidal post-emergence action, section B (Table B7); conditions: application rate 1280 g/ha, visual rating about 3 weeks after treatment vs untreated controls
Method: (§2) Seeds of mono- and dicotyledonous weed plants were placed in plastic pots in sandy loam soil (doubly sown with in each case one species of mono- or dicotyledonous weed plants per pot), covered with soil and cultivated in a greenhouse under controlled growth conditions. 2 to 3 weeks after sowing, the test plants were treated at the one-leaf stage. The compounds of the invention, formulated in the form of wettable powders (WP) or as emulsion concentrates (EC), were applied onto the green parts of the plants as aqueous suspension or emulsion with addition of 0.5% additive at a water application rate of 600 liters per hectare (converted). After the test plants had been kept in the greenhouse under optimum growth conditions for about 3 weeks, the activity of the preparations was rated visually in comparison to untreated controls. For example, 100% activity=the plants have died, 0% activity=like control plants.

[6] = system: Digitaria sanguinalis (DIGSA); experiment: Herbicidal post-emergence action, section B (Table B12); conditions: application rate 1280 g/ha; visual rating about 3 weeks after treatment vs untreated controls
Method: as §2

[7] = system: Echinochloa crus-galli (ECHCG); experiment: Herbicidal pre-emergence action, section C (Table C3); conditions: Echinochloa crus-galli, pre-emergence, 504 h; application rate 320 g/ha; visual grading after ca. 3 weeks vs untreated controls; read-out: pre-emergence activity against ECHCG in %
Excerpt: (§3) Seeds of mono- and dicotyledonous weed plants and crop plants were sown, in plastic or organic planting pots, in sandy loam and covered with soil. The compounds according to the invention, formulated in the form of wettable powders (WP) or as emulsifiable concentrates (EC), were applied to the surface of the covering soil as aqueous suspension or emulsion, with the addition of 0.5% of an additive, at an application rate of 600 l of water/ha (converted). Following treatment, the pots were placed in a greenhouse and kept under optimum growth conditions for the test plants. The visual grading of the damage to the test plants was carried out after ca. 3 weeks in comparison to untreated controls (herbicidal effect in percent (%): 100% effect=plants have died off, 0% effect=as control plants).

[8] = system: Setaria viridis (SETVI); experiment: Herbicidal pre-emergence action, section C (Table C8); conditions: Setaria viridis, pre-emergence, 504 h; application rate 320 g/ha; visual grading after ca. 3 weeks; read-out: pre-emergence activity against SETVI in %
Excerpt: as §3

[9] = system: Digitaria sanguinalis (DIGSA); experiment: Herbicidal pre-emergence action, section C (Table C12); conditions: Digitaria sanguinalis, pre-emergence, 504 h; application rate 320 g/ha; visual grading after ca. 3 weeks; read-out: pre-emergence activity against DIGSA in %
Excerpt: as §3

[10] = system: Zea mays (ZEAMX); experiment: Pre-emergence effects on crop plants, section D (Table D1); conditions: application rate 320 g/ha; visual grading after ca. 3 weeks
Excerpt: (§4) Seeds of mono- and dicotyledonous weed plants and crop plants were sown, in plastic or organic planting pots, in sandy loam and covered with soil. The compounds according to the invention, formulated in the form of wettable powders (WP) or as emulsifiable concentrates (EC), were applied to the surface of the covering soil as aqueous suspension or emulsion, with the addition of 0.5% of an additive, at an application rate of 600 l of water/ha (converted).
(§5) Following treatment, the pots were placed in a greenhouse and kept under optimum growth conditions for the test plants. The visual grading of the damage to the test plants was carried out after ca. 3 weeks in comparison to untreated controls (herbicidal effect in percent (%): 100% effect=plants have died off, 0% effect=as control plants).
(§6) Tables D1 to D5 below show the effects of various compounds of the general formula (I) according to Table 1 on various crop plants and an application rate corresponding to 320 g/ha or below obtained by the experimental procedure mentioned above in Biological Examples, Section C.

[11] = system: Triticum aestivum (TRZAS); experiment: Pre-emergence effects on crop plants, section D (Table D2); conditions: application rate 320 g/ha; visual grading after ca. 3 weeks
Excerpt: as §4, §5, §6

[12] = system: Zea mays (ZEAMX); experiment: Post-emergence effects on crop plants, section F (Table F1); conditions: Zea mays, 504 h, application rate 80 g/ha, read-out: post-emergence activity against ZEAMX in %
Excerpt: (§7) Seeds of mono- and dicotyledonous weed plants and crop plants were sown, in plastic or organic planting pots, in sandy loam, covered with soil and grown in a greenhouse under controlled growth conditions. 2 to 3 weeks after sowing, the test plants were sprayed in the single-leaf stage. The compounds according to the invention, formulated in form of wettable powders (WP) or as emulsifiable concentrates (EC), were sprayed onto the green plant parts as aqueous suspension or emulsion, with the addition of 0.5% of an additive, at an application rate of 600 l of water/ha (converted). The test plants were placed in the greenhouse for ca. 3 weeks under optimum growth conditions, and then the effect of the preparations was assessed visually in comparison with untreated controls (herbicidal effect in percent (%): 100% effect=plants have died off, 0% effect=as control plants). Tables F1 to F4 below show the effects of selected compounds of the general formula (I) according to Table 1 on various crop plants and an application rate corresponding to 320 g/ha or below obtained by the experimental procedure mentioned above.

[13] = system: Triticum aestivum (TRZAS); experiment: Post-emergence effects on crop plants, section F (Table F2); conditions: Triticum aestivum, 504 h, application rate 320 g/ha, read-out: post-emergence activity against TRZAS in %
Excerpt: as §7

[14] = system: Glycine max (GLXMA); experiment: Post-emergence effects on crop plants, section F (Table F4); conditions: Glycine max, 504 h, application rate 320 g/ha, read-out: post-emergence activity against GLXMA in %
Excerpt: as §7

[15] = system: Echinochloa crus-galli (ECHCG); experiment: Herbicidal pre-emergence action, section A (Table A3); conditions: Echinochloa crus-galli, pre-emergence, 504 h; application rate 1280 g/ha; visual grading after ca. 3 weeks vs untreated controls; read-out: pre-emergence activity against ECHCG in %
Excerpt: as §1

[16] = system: Lolium rigidum (LOLRI); experiment: Herbicidal pre-emergence action, section A (Table A5); conditions: Lolium rigidum, pre-emergence, 504 h; application rate 1280 g/ha; visual grading after ca. 3 weeks vs untreated controls; read-out: pre-emergence activity against LOLRI in %
Excerpt: as §1

[17] = system: Poa annua (POAAN); experiment: Herbicidal pre-emergence action, section A (Table A7); conditions: Poa annua, pre-emergence, 504 h; application rate 1280 g/ha; visual grading after ca. 3 weeks vs untreated controls; read-out: pre-emergence activity against POAAN in %
Excerpt: as §1

[18] = system: Setaria viridis (SETVI); experiment: Herbicidal pre-emergence action, section A (Table A8); conditions: Setaria viridis, 504 h, application rate 1280 g/ha, read-out: pre-emergence activity against SETVI in %
Excerpt: as §1

[19] = system: Veronica persica (VERPE); experiment: Herbicidal pre-emergence action, section A (Table A10); conditions: Veronica persica, 504 h, application rate 1280 g/ha, read-out: pre-emergence activity against VERPE in %
Excerpt: as §1

[20] = system: Abutilon theophrasti (ABUTH); experiment: Herbicidal post-emergence action, section B (Table B1); conditions: Abutilon theophrasti, 504 h, application rate 1280 g/ha, rated visually after about 3 weeks, read-out: post-emergence activity against ABUTH in %
Method: as §2

[21] = system: Echinochloa crus-galli (ECHCG); experiment: Herbicidal post-emergence action, section B (Table B3); conditions: Echinochloa crus-galli, 504 h, application rate 1280 g/ha, rated visually after about 3 weeks, read-out: post-emergence activity against ECHCG in %
Method: as §2

[22] = system: Kochia scoparia (KCHSC); experiment: Herbicidal post-emergence action, section B (Table B4); conditions: Bassia scoparia, post-emergence, 504 h; application rate 320 g/ha; visual rating about 3 weeks after treatment vs untreated controls; read-out: post-emergence activity against KCHSC in %
Method: as §2

[23] = system: Stellaria media (STEME); experiment: Herbicidal post-emergence action, section B (Table B9); conditions: Stellaria media, post-emergence, 504 h; application rate 1280 g/ha; visual rating about 3 weeks after treatment vs untreated controls; read-out: post-emergence activity against STEME in %
Method: as §2

[24] = system: Veronica persica (VERPE); experiment: Herbicidal post-emergence action, section B (Table B10); conditions: Veronica persica, post-emergence, 504 h; application rate 1280 g/ha; visual rating about 3 weeks after treatment vs untreated controls; read-out: post-emergence activity against VERPE in %
Method: as §2

[25] = system: Amaranthus retroflexus (AMARE); experiment: Herbicidal post-emergence action, section B (Table B11); conditions: Amaranthus retroflexus, post-emergence, 504 h; application rate 320 g/ha; visual rating about 3 weeks after treatment vs untreated controls; read-out: post-emergence activity against AMARE in %
Method: as §2

## CC(=O)N1CSc2cc(Br)c(-c3cccc(Cl)c3F)nc21 [Example I-115]
[1]; application rate 1280 g/ha
  pre-emergence activity against KCHSC in %: 90%
[2]
  pre-emergence activity against STEME in %: 90%
[3]; application rate 1280 g/ha
  pre-emergence activity against AMARE in %: 90%
[4]
  pre-emergence activity against DIGSA in %: 100%
[5]
  post-emergence activity against POAAN in %: 90%
[6]
  post-emergence activity against DIGSA in %: 90%

## COC(=O)CCC(=O)N1CSc2cc(Br)c(-c3sccc3Cl)nc21 [Example I-077, methyl 4-[6-bromo-5-(3-chloro-2-thienyl)-2H-thiazolo[4,5-b]pyridin-3-yl]-4-oxo-butanoate]
[7]
  pest or weed control at 320 g/ha: 90%
[8]
  pest or weed control at 320 g/ha: 90%
[9]
  pest or weed control at 320 g/ha: 90%
[10]
  pre-emergence activity against ZEAMX in % (crop plant damage): 10%
[11]
  pre-emergence activity against TRZAS in % (crop plant damage): 0%
[12]
  percent crop plant damage (phytotoxicity) on Zea mays, post-emergence at 80 g/ha: 0%
[13]
  percent crop plant damage (wheat, post-emergence) at 320 g/ha: 20%
[14]
  percent crop plant damage at 320 g/ha: 10%

## CCCC(=O)N1CSc2cc(Br)c(-c3ccccc3Cl)nc21 [Example I-042, 1-[6-bromo-5-(2-chlorophenyl)[1,3]thiazolo[4,5-b]pyridin-3(2H)-yl]butan-1-one]
[15]
  pest or weed control at 1280 g/ha: 100%
[1]; Bassia scoparia, pre-emergence, 504 h, application rate 320 g/ha, read-out: pre-emergence activity against KCHSC in %
  pest or weed control at 320 g/ha: 90%
[16]
  pest or weed control at 1280 g/ha: 90%
[17]
  pest or weed control at 1280 g/ha: 100%
[18]
  pest or weed control at 1280 g/ha: 100%
[2]; Stellaria media, 504 h, read-out: pre-emergence activity against STEME in %
  pest or weed control at 1280 g/ha: 90%
[19]
  pest or weed control at 1280 g/ha: 90%
[3]; Amaranthus retroflexus, 504 h, application rate 320 g/ha, read-out: pre-emergence activity against AMARE in %
  pest or weed control at 320 g/ha: 90%
[4]; Digitaria sanguinalis, 504 h, read-out: pre-emergence activity against DIGSA in %
  pest or weed control at 1280 g/ha: 100%
[20]
  pest or weed control at 1280 g/ha: 90%
[21]
  pest or weed control at 1280 g/ha: 90%
[22]
  pest or weed control at 320 g/ha: 90%
[5]; Poa annua, post-emergence, 504 h, read-out: post-emergence activity against POAAN in %
  pest or weed control at 1280 g/ha: 90%
[23]
  pest or weed control at 1280 g/ha: 90%
[24]
  pest or weed control at 1280 g/ha: 90%
[25]
  pest or weed control at 320 g/ha: 90%
